The text below walks through data of ChEMBL document CHEMBL1201862, “PubChem BioAssay data set” (2004).

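Where inhibition never reached the appropriate level, the endpoint shown equals the highest concentration tested. Otherwise, values were interpolated linearly from a five-concentration, 48-hour dose response in 96-well plates. GI50: concentration for 50% inhibition of growth.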 Calls of active or inactive are those of the source. Rule as the data show it: active = GI50 up to about 1.1 µM and inactive = higher.

Some test systems named below: BT-549; NCI-H522; NCI-H460; HCC 2998; U-251; SNB-75; TK-10; SK-MEL-28; CAKI-1; OVCAR-3; 786-0; SR; NCI-H226; CCRF-CEM; Hs-578T; HCT-15; OVCAR-5; NCI/ADR-RES; MDA-MB-231; OVCAR-8.
What all share (test): NCI-60 cell line screen, 48 h

Regarding `CCOC(=O)CCC(NC(=O)Cc1ccc(Nc2nc3ccccc3nc2-c2cccs2)cc1)C(=O)OCC` (stereo not drawn), the GI50 in the test on BT-549 was > 100 µM (inactive); in the test with NCI-H522 it was 32 µM (inactive); in the test with NCI-H460 it was 81.3 µM (inactive); in the test with HCC 2998 it was > 100 µM (inactive); in the test on U-251 it was 28.1 µM (inactive); in the test on SNB-75 it was 18.1 µM (inactive). The GI50 with TK-10 was 23.5 µM (inactive); with SK-MEL-28, > 100 µM (inactive); in the test on CAKI-1, > 100 µM (inactive); in the test on OVCAR-3, 34 µM (inactive); with 786-0, 29.6 µM (inactive); in the test on SR, 29.3 µM (inactive). The GI50 in the test with NCI-H226 is > 100 µM (inactive); in the test with CCRF-CEM it was > 100 µM (inactive); in the test with Hs-578T it was 25.1 µM (inactive); in the test on HCT-15 it was greater than 100 µM; with OVCAR-5 it was > 100 µM (inactive); with NCI/ADR-RES, 61.8 µM (inactive). For the same molecule, the GI50 with MDA-MB-231 is > 100 µM (inactive).

For the molecule `C/C=C(\C)C(O)C(C)C(O)C/C=C(C)/C=C(\C)C/C(C)=C/C/C=C(\C)C(O)C(C)c1ccc(CCC)c(=O)o1` (stereo not drawn), the GI50 with BT-549 was 11.8 µM (inactive); in the test with NCI-H522, 2 µM (inactive); in the test on NCI-H460 it was 5.18 µM (inactive); in the test on OVCAR-8 it was 12.9 µM (inactive); with HCC 2998, 12.9 µM (inactive); in the test on U-251 it was 11.4 µM (inactive). In addition, the GI50 in the test on SNB-75 is 10.8 µM (inactive); with TK-10, 17.5 µM (inactive); in the test on SK-MEL-28 it was 17.1 µM (inactive); in the test with CAKI-1 it was 12.9 µM (inactive); in the test on OVCAR-3 it was 12.1 µM (inactive); in the test with 786-0, 20.8 µM (inactive). The GI50 in the test on SR is 18.8 µM (inactive); with NCI-H226, 21.1 µM (inactive); in the test with CCRF-CEM it was 61.8 µM (inactive); with Hs-578T it was 14.5 µM (inactive); with HCT-15, 1.17 µM; with OVCAR-5, 19.8 µM (inactive). The figures for the GI50 in the test on NCI/ADR-RES and in the test with MDA-MB-231 were 2.8 µM (inactive) and 13.2 µM (inactive), respectively.

As to `Cc1cc(S(=O)(=O)n2ccnc2O)c(SCCCN(C)C)cc1Cl`, the GI50 in the test on BT-549, in the test on NCI-H522, in the test with NCI-H460, with OVCAR-8, in the test on HCC 2998 and in the test with U-251 was > 100 µM (inactive) each time. In addition, the GI50 with TK-10, in the test with SK-MEL-28, with CAKI-1, in the test with OVCAR-3, in the test with 786-0 and in the test with SR was > 100 µM (inactive) in each case. For the same molecule, the GI50 with NCI-H226 is > 100 µM (inactive); with CCRF-CEM it was > 100 µM (inactive); in the test with Hs-578T it was > 100 µM (inactive); with HCT-15, greater than 100 µM; in the test with OVCAR-5, > 100 µM (inactive); with NCI/ADR-RES it was > 100 µM (inactive). In the test on MDA-MB-231, the GI50 is > 100 µM (inactive).

In the case of `CN1C(NN)=NS(=O)(=O)c2ccccc21`, the GI50 in the test on BT-549, in the test with NCI-H522, in the test with NCI-H460, in the test with OVCAR-8, in the test with HCC 2998 and with U-251 was > 100 µM (inactive) in each case. Further, the GI50 was > 100 µM (inactive) in the test with TK-10; > 100 µM (inactive) with SK-MEL-28; > 100 µM (inactive) with CAKI-1; > 100 µM (inactive) in the test on OVCAR-3; > 100 µM (inactive) in the test on 786-0; 8.51 µM (inactive) with SR. Moreover, the GI50 in the test on NCI-H226 is > 100 µM (inactive); in the test on CCRF-CEM, > 100 µM (inactive); in the test with Hs-578T, > 100 µM (inactive); in the test with HCT-15, greater than 100 µM; in the test on OVCAR-5, > 100 µM (inactive); with NCI/ADR-RES, > 100 µM (inactive). For the same molecule, the GI50 in the test on MDA-MB-231 is > 100 µM (inactive).

`CCCCCCCCCCCCCCCCCCNc1ccn(C2OC(CO)C(O)C2O)c(=O)n1` (stereo not drawn): the GI50 in the test with BT-549 is > 100 µM (inactive); with NCI-H522, 19.8 µM (inactive); in the test with NCI-H460 it was > 100 µM (inactive); in the test with OVCAR-8, > 100 µM (inactive); with HCC 2998, 50.5 µM (inactive); in the test on U-251 it was 38.6 µM (inactive). Moreover, the GI50 is 29.9 µM (inactive) in the test with SNB-75; > 100 µM (inactive) in the test with TK-10; > 100 µM (inactive) with SK-MEL-28; > 100 µM (inactive) with CAKI-1; > 100 µM (inactive) in the test with OVCAR-3; > 100 µM (inactive) in the test on 786-0. Also, the GI50 in the test on SR is 23.7 µM (inactive); in the test on NCI-H226, > 100 µM (inactive); in the test on CCRF-CEM, 5.37 µM (inactive); in the test with Hs-578T, > 28.8 µM (inactive); with HCT-15, greater than 100 µM; with OVCAR-5, > 100 µM (inactive). Also, the GI50 in the test with NCI/ADR-RES and in the test on MDA-MB-231 was > 100 µM (inactive) in each case.

Regarding `CC1=CCCC2C1(C)CCC(C)C2(C)Cc1cc(O)ccc1O` (stereo not drawn), the GI50 with BT-549 is 5.22 µM (inactive); with NCI-H522, 3.18 µM (inactive); in the test on NCI-H460, 5.69 µM (inactive); in the test with OVCAR-8 it was 4.54 µM (inactive); in the test with HCC 2998, 8.59 µM (inactive); with U-251, 4.26 µM (inactive). The GI50 is 7.66 µM (inactive) with SNB-75; 11.1 µM (inactive) in the test with TK-10; 14.1 µM (inactive) in the test with SK-MEL-28; 7.1 µM (inactive) in the test on CAKI-1; 5.74 µM (inactive) in the test with OVCAR-3; 7.24 µM (inactive) in the test with 786-0. The GI50 is 5.46 µM (inactive) with SR; 9.29 µM (inactive) in the test with NCI-H226; 1.56 µM (inactive) in the test on CCRF-CEM; 6.19 µM (inactive) in the test on Hs-578T; 8.73 µM in the test with HCT-15; 21 µM (inactive) with OVCAR-5. Also, the figures for the GI50 in the test with NCI/ADR-RES and in the test with MDA-MB-231 were 5.21 µM (inactive) and 12.9 µM (inactive), respectively.

As for `[O-][S+](Nc1ccccc1)c1ccc(-c2ccccc2)cc1` (stereo not drawn), the GI50 is 8.57 µM (inactive) in the test on BT-549; > 100 µM (inactive) in the test on NCI-H522; > 100 µM (inactive) in the test with NCI-H460; 45.8 µM (inactive) in the test on OVCAR-8; > 100 µM (inactive) in the test on HCC 2998; > 100 µM (inactive) in the test with U-251. For the same molecule, the GI50 in the test with TK-10, in the test with SK-MEL-28, in the test with OVCAR-3, in the test with 786-0, with SR and in the test on NCI-H226 was > 100 µM (inactive) each time. Besides, the GI50 is > 100 µM (inactive) in the test on CCRF-CEM; > 100 µM (inactive) in the test on Hs-578T; greater than 100 µM in the test on HCT-15; > 100 µM (inactive) in the test with OVCAR-5; > 100 µM (inactive) with NCI/ADR-RES; > 100 µM (inactive) in the test on MDA-MB-231.

On to `COc1ccc(S(=O)(=O)n2c3c(c4ccccc42)[C@@H]2[C@@H](CCCN2C(=O)C[S+]([O-])c2ccc(C)cc2)[C@H](Cl)C3)cc1` (stereo partly drawn), for which the GI50 in the test with BT-549 is 5.83 µM (inactive); in the test with NCI-H522, > 100 µM (inactive); in the test with NCI-H460 it was > 100 µM (inactive); with OVCAR-8, > 100 µM (inactive); in the test on HCC 2998, > 100 µM (inactive); in the test with U-251 it was > 100 µM (inactive). For the same molecule, the GI50 in the test with SNB-75 is > 100 µM (inactive); with TK-10 it was 32 µM (inactive); with SK-MEL-28, > 100 µM (inactive); in the test with CAKI-1, > 100 µM (inactive); in the test on OVCAR-3 it was > 100 µM (inactive); with 786-0 it was > 100 µM (inactive). Moreover, the GI50 in the test with SR was > 100 µM (inactive); with NCI-H226 it was > 100 µM (inactive); in the test with CCRF-CEM, > 100 µM (inactive); in the test on Hs-578T, > 100 µM (inactive); in the test on HCT-15, greater than 100 µM; in the test on OVCAR-5, > 100 µM (inactive). Moreover, the GI50 in the test with NCI/ADR-RES and in the test on MDA-MB-231 was > 100 µM (inactive) each time.

`c1ccc2c(NCCCCCCNc3c4ccccc4nc4ccccc34)c3ccccc3nc2c1`: the GI50 in the test on BT-549 was 1.5 µM (inactive); in the test on NCI-H522 it was 0.0893 µM (active); with NCI-H460 it was 0.0631 µM (active); in the test with OVCAR-8, 0.289 µM (active); in the test with HCC 2998 it was 0.171 µM (active); in the test on U-251, 0.276 µM (active). Also, the GI50 with SNB-75 was 0.713 µM (active); with TK-10 it was 1.34 µM (inactive); with CAKI-1 it was 1.53 µM (inactive); with OVCAR-3, 0.277 µM (active); in the test on 786-0, 0.232 µM (active); in the test with SR, 0.0288 µM (active). Also, the GI50 was 0.587 µM (active) with NCI-H226; 0.0471 µM (active) in the test with CCRF-CEM; 0.682 µM (active) with Hs-578T; 4.34 µM in the test on HCT-15; 0.13 µM (active) in the test on OVCAR-5; 17.9 µM (inactive) in the test with NCI/ADR-RES. Besides, the GI50 in the test on MDA-MB-231 is 0.08 µM (active).

Take `C[C@H](N)C(=O)N[C@@H]1[C@H]2C(=C(O)C[C@@H](O)[C@@H]2O)C(=O)O[C@]1(C)C(Cl)Cl` [BACTOBOLIN]: the GI50 in the test on BT-549 was 0.165 µM (active); in the test with NCI-H522, 0.16 µM (active); with NCI-H460, 0.111 µM (active); with OVCAR-8, 0.167 µM (active); in the test on HCC 2998 it was 0.164 µM (active); in the test with U-251, 0.144 µM (active). Also, the GI50 in the test on SNB-75 is 0.185 µM (active); in the test with TK-10, 0.356 µM (active); with SK-MEL-28, 0.234 µM (active); in the test on CAKI-1, 0.166 µM (active); with OVCAR-3 it was 0.34 µM (active); in the test with 786-0, 0.0655 µM (active). Also, the GI50 is 0.0776 µM (active) with SR; 0.195 µM (active) in the test with NCI-H226; 0.125 µM (active) with Hs-578T; 0.597 µM in the test on HCT-15; 0.604 µM (active) in the test on OVCAR-5; 3.36 µM (inactive) in the test with NCI/ADR-RES. The GI50 in the test with MDA-MB-231 is 0.156 µM (active).
